Data on one compound can be found in US10633383B2, “Compounds for the treatment, alleviation or prevention of disorders associated with Tau aggregates” (AC Immune SA, priority 2018, dated 2020).

Structures are written as SMILES.

Assay [1] addresses T1, Tau K18 fragment (amino acids 244 to 372 of human Tau441) aggregates (Homo sapiens, UniProt P10636).
T1 construct: encompassing amino acids 244 to 372 of the longest isoform (2N4R) of human Tau441; host or cells: bacteria
The experiment in a line: Tau K18 disaggregation assay by ThT. In kind it is biochemical. To be noted: 2 μM K18 aggregates, 30 minutes at RT, ThT fluorescence.

Assay [2] relates to rTg4510 mice. The experiment in a line: Total human Tau in CSF of rTg4510 mice (AlphaLISA). In kind it is in vivo, mouse. The following applies: 30 mg/kg bi-daily by gavage for 1 month, vs vehicle treated rTg4510 mice (FIG. 1). From the text:
(§1) In Vivo Efficacy of the Compounds of the Present Invention In Vivo Study Design for the Testing of Example 12 and Example 45
(§2) Double transgenic rTg4510 mice express the full-length human Tau carrying the P301L mutation (Tau4R0N-P301L) under the control of the tet-inducible CaMKII promoter (Ramsden et al., J. Neurosci., 2005⋅25(46):10637-10647). Single transgenic mice expressing only the tetracycline-controlled transactivator (tTA) were used as genotype controls. The study comprised 4 treatment groups (n=15 female for tTa group and n=11 female mice/group for the treatment) with the following group distribution (see Table 9). […]
Mice were deeply anesthetized by standard injectable anesthesia and transcardially perfused with cold PBS. […] Total human Tau in CSF Tau was quantified using the following antibody pairs: HT7-Acceptor beads+biotin (BT)-Tau13-donor beads. […]
After incubation of this mixture at room temperature for 1 hour, 25 μL of Streptavidin Donor beads (Perkin Elmer) at 25 μg/mL were added in the dark. Plates were analyzed after 30 minute incubation using the EnSpire Alpha instrument and EnSpire Workstation version 3.00. Data were analyzed by 1-way ANOVA followed by post-hoc comparisons and shown statistics refers to differences compared to vehicle treated rTg4510 mice.

Assay [3] deals with rTg4510 mice. The experiment in a line: Histology for misfolded Tau (MC1) in rTg4510 mice. Format: in vivo, mouse. The following applies: 30 mg/kg bi-daily by gavage for 1 month, frontal cortex (FIG. 2).
Description: as §1, §2
After perfusion, brains were then removed and hemi-sagitally hemisected. […] A systematic random set of sections from seven sagittal levels per animal was used to quantify the Iba1 and CD68 immunoreactivity while 1 section/animal from the medio-lateral level 4 were used to assess Tau misfolding (MC1 monoclonal antibody). […] Sections were imaged using a digital slide scanner (Panoramic 250 Flash, 3D Histech Ltd.) and quantified using the image visualization software Visiopharm.
MC1 staining was analyzed in the frontal cortex in the upper cortical layers. […] This ROI was analyzed in Visiopharm using a predetermined threshold for MC1 staining with a pixel intensity threshold above 30 (8 bits pictures) and excluding all detected objects smaller than 20 μm^2. […]

For assay [4], the system named is rTg4510 mice. The experiment in a line: Histology for neuroinflammation markers (Iba1, CD68) in rTg4510 mice. In kind it is in vivo, mouse.
Description: as §1
as §2, with “9). Compounds or vehicle control were administered once daily or bi-daily by gavage for 1 month starting at the age of 5 months. All mice received 200 ppm doxycycline in chow for 3 weeks plus a loading dose in drinking water for the first two days at 1.5 mg/mL in 4% sucrose.” for “9).”
After perfusion, brains were then removed and hemi-sagitally hemisected. […] A systematic random set of sections from seven sagittal levels per animal was used to quantify the Iba1 and CD68 immunoreactivity while 1 section/animal from the medio-lateral level 4 were used to assess Tau misfolding (MC1 monoclonal antibody). […] Sections were imaged using a digital slide scanner (Panoramic 250 Flash, 3D Histech Ltd.) and quantified using the image visualization software Visiopharm. […]

T1 sequence (P10636 561-689): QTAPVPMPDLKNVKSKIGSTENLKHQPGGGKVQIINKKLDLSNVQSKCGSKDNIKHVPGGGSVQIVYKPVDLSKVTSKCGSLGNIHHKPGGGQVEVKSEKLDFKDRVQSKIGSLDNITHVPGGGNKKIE

In the case of `Fc1ccc2[nH]c3c(c2c1)CN(c1ccc2nc(N4CCOCC4)oc2c1)CC3` [Example 12], the EC50 in assay [1] is under 10 µM. Further, the “Tau levels in CSF” value in the assay on rTg4510 mice [2] is “decreased Tau levels in CSF”. Moreover, the “MC1 positive area (misfolded Tau)” value in the assay on rTg4510 mice [3] is reported as “decreased the MC1 positive area”. Further, in the assay with rTg4510 mice [4] (30 mg/kg bi-daily by gavage for 1 month (FIG. 3A)), the “microgliosis measured as Iba1 immunoreactive area” value is “decreased microgliosis”. The “activated phagocytic microglial cells positive for CD68” value in the assay on rTg4510 mice [4] (30 mg/kg bi-daily by gavage for 1 month (FIG. 3B)) was “decreased highy activated phagocytic migroglial cells”.
